From patent US7915220B2, “Peptidomimetic agents from dextrorotatory amino acids as well as pharmaceutical agents that contain the latter for treatment of neurodegenerative diseases” (JSW-Research Forschungslabor GmbH, priority 2006, dated 2011) come the findings set out here.

Where a SMILES comes first, the peptide text is derived from it. [ ]: non-standard residue; d: D form.

Data set [1] can be described thus: Stability of peptides incubated with rat brain homogenate (RP-HPLC / LC-MS). In kind it is in vitro ADME. The settings on record: for remaining at 0.25 h, 0.2 mM / remaining at 1 h, 0.2 mM / remaining at 3 h, 0.2 mM / remaining at 24 h, 0.2 mM: pH 7.6, 37° C.; for remaining at 0.25 h, 0.2 mM: 15 minutes, read-out: portion of the amount of sample used left after 15 Minutes; for remaining at 1 h, 0.2 mM: read-out: portion of the amount of sample used left after 1 Hour; for remaining at 3 h, 0.2 mM: read-out: portion of the amount of sample used left after 3 Hours; for remaining at 24 h, 0.2 mM: read-out: portion of the amount of sample used left after 24 Hours; for half-life at 0.2 mM: tris buffer pH 7.6, 37° C. The protocol:
An essential advantage of the peptidomimetic agents according to the invention, which consist of D-amino acids as well as glycine, is the higher stability compared to the degradation by various enzymes that occur in the body—in particular peptidases. For this reason, the stability of the nuclear sequence mimetic agent vGek was compared to that of the corresponding retroinverse peptide KEGV according to WO 03/082906 A, whereby the peptides together with a rat brain homogenate were incubated for 15 minutes as well as for 1, 3 and 24 hours.
To this end, freshly isolated rat brain was homogenized in tris buffer (pH 7.6) and used immediately. In each case, a portion of a 1 mmol peptide solution and four parts of the homogenate were incubated at 37° C. After the incubation, the decomposition of the enzymes was halted by adding 50 μl of 0.1 M HCl. Then, a denaturation of the proteins was carried out with methanol (volume ratio: 1:4) at −20° C. for 60 minutes. Then, it was centrifuged for 20 minutes at 4° C. and 29,000 g.
Finally, the samples were concentrated under vacuum and analyzed by means of RP-HPLC (liquid chromatography, with UV/vis detector, detection wavelength: 220 nm; solvent: (A) 0.1% TFA/water (A), 0.1% TFA in 80% ACN/water (B); column: Phenomenex Jupiter C18 (250×4 mm, 5 μm of 300 Å), flow rate: 1.2 ml/minute, gradients: 0 to 15% B after 30 minutes (KEGVOH), 0% isocratic B for 10 minutes, then at 0 to 15% B after 30 minutes (KEGVNH2), 0 to 15% B after 20 minutes (vGekNH2)).
As an alternative, LC-MS (Applied Biosystems 140C Microgradient System; solvent: 0.1% HCOOH/water (A), 0.1% HCOOH in 80% acetonitrile/water (B); column: Alltech Hypersil C18 (150×2.1 mm, 5 μm of 100 Å), flow rate: 0.15 ml/minute, gradient: 0 to 15% B after 20 minutes; detector: Finnigan TSQ-7000 Triple Quadrupole Mass Spectrometer, m/z Range; 10-1000, scan time: 1.0 second) was also used.

Data set [2] in a line: Blood-brain barrier passage of tritiated vGek in rats (radioactivity in organs). Format: in vivo. The protocol: The test was performed as follows:
Rats were injected with […] of tritiated vGek (vGek of specific activity: 34.0 Ci/mmol). 10, 30 and 60 minutes after the injection, the animals were anesthetized, and blood as well as a few organs were removed for examination and weighed. Depending on the organ, 50-250 mg of tissue was removed in a solvent and incubated at 60° C. for 2 hours. After cooling to room temperature, 200 μl of 30% H2O2 was added. Then, another incubation at 60° C. was carried out for 30 minutes. Finally, the radioactivity was determined with the aid of a scintillation measuring device.

Another data set has as its system SHSY-5Y cells. The data set is described as follows: MTT test, injury of differentiated SHSY-5Y cells with pre-aggregated Aβ-1-42. In kind it is cell-based. As for the experimental part:
To examine the action of the peptidomimetic agent according to the invention in a relevant biological system, injury tests were performed in cell cultures with Aβ-1-42 (β-amyloid). Differentiated SHSY-5Y cells were used as cell culture systems.
The cells that were still not differentiated were cultivated in 96-well plates at 37° C. in an atmosphere in DMEM/F12 (Cambrex) that contains 5% CO2 until confluence is completed. For differentiation, the following medium composition was selected: 10 μmol of All-Trans-retinoic acid, 10% FBS, 4 mmol of L-glutamine, 200 units/ml of penicillin, 200 μg/ml of streptomycin, 0.5% DMSO in MEM non-essential amino acids (e.g., Cambrex). After 8 days in the differentiation medium, 3×10^5 cells/cm^2 in the form of a monolayer were present.
Before the application, the test substances were irradiated for 10 minutes in a form already dissolved in culture medium. This medium contained 2% FBS (fetal bovine serum) and was free of phenol red, retinoic acid and DMSO.
Aβ-1-42 was pre-aggregated before the addition for 24 hours at room temperature while being shaken lightly. […]
Then, the medium was carefully emptied, and the formazan crystals that were produced were dissolved with a DMSO/ethanol solution (4:1). Finally, the color intensity obtained was measured at 550 nm in an ELISA reader. […]

As usually defined, the half-life is how long it takes for the measured level to halve. A lower half-life goes with fast loss. As for `CC(C)[C@H](NC(=O)CNC(=O)[C@H](CCC(=O)O)NC(=O)[C@@H](N)CCCCN)C(N)=O` [KEGVNH2] (H-KEGV-NH2; N-terminus assumed), in data set [1], the remaining at 0.25 h, 0.2 mM was 22%; the remaining at 1 h, 0.2 mM amounted to 0%; the remaining at 3 h, 0.2 mM came to 0%; the half-life at 0.2 mM was less than 0.25 h. In data set [1] (24 hours), the remaining at 24 h, 0.2 mM amounted to 0%.
For the molecule `CC(C)[C@H](NC(=O)CNC(=O)[C@H](CCC(=O)O)NC(=O)[C@@H](N)CCCCN)C(=O)O` [KEGVOH] (H-KEGV-OH; N-terminus assumed), in data set [1], the remaining at 0.25 h, 0.2 mM amounted to 14%; the remaining at 1 h, 0.2 mM amounted to 0%; the remaining at 3 h, 0.2 mM was 0%; the half-life at 0.2 mM is less than 0.25 h. The remaining at 24 h, 0.2 mM in data set [1] (24 hours) was 0%.
As to `CC(C)[C@@H](N)C(=O)NCC(=O)N[C@H](CCC(=O)O)C(=O)N[C@H](CCCCN)C(=O)O` [vGek, Dval-gly-Dglu-Dlys] (H-[dV]G[dE][dK]-OH; N-terminus and C-terminus assumed), the “highest measured value in the brain” value in data set [2] (injection of 2.94 mmol tritiated vGek) stood at 1.33 pmol. The “passage through the blood-brain barrier” value in data set [2] (tritiated vGek) is reported as “could overcome the blood-brain barrier”. In the data set on SHSY-5Y cells (50 μmol vGek alone), the “influence on the survival of cells (toxicity of the peptide alone)” value is reported as “no detectable influence on the survival of cells”. Moreover, the “stability above that of the corresponding peptide KEGV” value in data set [1] (in vitro) is given as 2-3 orders of magnitude.
Take `CC(C)[C@@H](N)C(=O)NCC(=O)N[C@H](CCC(=O)O)C(=O)N[C@H](CCCCN)C(N)=O` [vGekNH2] (H-[dV]G[dE][dK]-NH2; N-terminus assumed): the “detectability of peptide after 24 hours” value in data set [1] (37° C., 24 hours) was “can be detected”. For the same molecule, in data set [1], the remaining at 3 h, 0.2 mM was 70% and the half-life at 0.2 mM is 20 to 24 h. In data set [1] (24 hours), the remaining at 24 h, 0.2 mM is 50%.
Turning to “Aβ-1-42: amyloidogenic β-amyloid peptide with 42 amino acids, used pre-aggregated to damage cells”, the “survival rate of SHSY-5Y cells” value in the data set on SHSY-5Y cells (10 μmol of pre-aggregated Aβ-1-42 alone) came to 56%.
